Laboratory results published in patent publication US10440955B2, “Methods comprising a biocidal polyamine” (Curza Global, LLC, priority 2013, dated 2019).
Converted amounts (≈) assume the structure as drawn. Where a name gives a salt, the structure may show the parent alone. Read-outs that look alike come from different tables or passages of the source.

Key:
P. aeruginosa = assay: MIC, 96-well CAMHB, 10^5 to 10^2 CFU/mL in 24 hours; type: cell-based, Pseudomonas aeruginosa; details: for MIC: Pseudomonas aeruginosa
Description: (§1) To determine the MIC of polyamine compounds, the protocol described herein was used.
(§2) In brief, a 0.5 McFarland of each bacterial isolate was made. A 0.5 McFarland is a measure of turbidity in a liquid sample that contains approximately 1×10^∧8 CFU/mL. The 0.5 McFarland standard was diluted in cation adjusted Mueller Hinton Broth (CAMHB), and 50 μL of broth were added to a well of a 96-well plate. In addition, 50 μL of CAMHB that contained a desired concentration of antimicrobial were also added to the well for a final volume of 100 μL and a final concentration of approximately 5×10^4 CFU/well (which equated to approximately 5×10^5 CFU/mL). Each well contained a desired amount of polyamine compound in order to experimentally determine the MIC. Each 96-well plate was incubated at 37° C. for 24 hours. The contents of each well were plated on tryptic soy agar (TSA). TSA plates were incubated for 37° C. for 24 hours after which the number of CFU were counted and used to calculate the CFU/mL that remained after exposure to varying concentrations of compound. This procedure was repeated n=8 times for each concentration of antimicrobial.

MRSA = assay: as above; type: cell-based, Staphylococcus aureus; details: for MIC: Staphylococcus aureus, MRSA, read-out: MIC (MRSA)
Description: as §1
as §2, with “antimicrobial. […]” for “antimicrobial.”

L-929 cells (ATCC CCL-1) = assay: Minimal Essential Media (MEM) Elution cytotoxicity test; type: cell-based; details: Table 10A
Description: Summary: The Minimal Essential Media (MEM) Elution test was designed to determine the cytotoxicity of extractable substances. The test article was added to cell monolayers and incubated. The cell monolayers were examined and scored based on the degree of cellular destruction.
Acceptance Criteria: The United States Pharmacopeia & National Formulary (USP <87>) states that the test article meets the requirements, or receives a passing score (Pass) if the reactivity grade is not greater than grade 2 or a mild reactivity.
Acceptance criteria were based upon the negative and media controls receiving “0” reactivity grades and positive controls receiving a 3-4 reactivity grades (moderate to severe).
The cell monolayers were examined microscopically. The wells were scored as to the degree of discernable morphological cytotoxicity on a relative scale of 0 to 4:
The results from the three wells were averaged to give a final cytotoxicity score.
[…] This initial concentration was then diluted 1: 2, 1:4, 1:8, and 1:16. Multiple well cell culture plates were seeded with a verified quantity of industry standard L-929 cells (ATCC CCL-1) and incubated until approximately 80% confluent. The test articles and control extracts were added to the cell monolayers in triplicate. The cells were incubated at 37±1° C. with 5±1% CO2 for 48±3 hours.

[1] = read-out: MIC (P. aeruginosa), Table 5
[2] = Table 5, read-out: MIC (P. aeruginosa)

MIC (MRSA; Table 5) [µM] | MIC (P. aeruginosa; [2]) [µM] | SMILES | MIC (P. aeruginosa; [1]) [µM] | MIC (MRSA) [µM] | further results
– | – | NCCCCNCc1ccccc1 [CZ-3, N^1-benzylbutane-1,4-diaminium chloride] | > 100 | – | –
– | – | NCCCCCCCCCCCCNCc1ccccc1 [CZ-5, N^1-benzyldodecane-1,12-diamine, hydrochloride salt] | – | > 100 | –
– | – | NCCCCCCNCc1ccccc1 [CZ-9, N^1-benzylhexane-1,6-diamine, hydrochloride salt] | – | > 100 | –
– | – | CN(C)CCCCCCCCCCCCN(C)Cc1ccccc1 [CZ-10, N^1-Benzyl-N^1,N^12,N^12-trimethyldodecane-1,12-diamine, hydrochloride salt] | – | > 100 | –
> 100 | – | CC(C)(C)OC(=O)NCCCNCCCNCc1cccc(CNCCCNCCCNC(=O)OC(C)(C)C)c1 [CZ-27, di-tert-butyl (((((1,3-phenylenebis(methylene))bis(azanediyl))bis(propane-3,1-diyl))bis(azanediyl))bis(propane-3,1-diyl))dicarbamate] | – | – | –
< 50 | < 50 | CC(C)(C)OC(=O)NCCCNCCCNCc1cc(CNCCCNCCCN)cc(CNCCCNCCCN)c1 [CZ-51, tert-butyl (3-((3-((3,5-bis(((3-((3-aminopropyl)amino)propyl)amino)methyl)-benzyl)amino)propyl)amino)propyl)carbamate] | – | – | –
– | – | NCCCNCCCNCc1cc(CO)cc(CNCCCNCCCN)c1 [CZ-53, (3,5-bis(((3-((3-aminopropyl)amino)propyl)amino)methyl)phenyl)-methanol, hydrochloride salt] | – | – | MIC (P. aeruginosa) (P. aeruginosa; Table 5): ++ to +++
– | – | CC(C)Oc1ccc(-c2cc(CNCCCNCCCN)cc(CNCCCNCCCN)c2)cc1CNCCCNCCCN [CZ-66, N^1,N^1′,N^1″-((4′-isopropoxy-[1,1′-biphenyl]-3,3′,5-triyl)tris(methylene))-tris(N^3-(3-aminopropyl)propane-1,3-diamine), hydrochloride salt] | – | – | Results Pass/Fail (L-929 cells (ATCC CCL-1); 25 μg/mL): Fail (a numerical grade greater than 2 is considered a cytotoxic effect, or a failing score (Fail)); Results Pass/Fail (L-929 cells (ATCC CCL-1); dilution 1:2 of 25 μg/mL): Fail (a numerical grade greater than 2 is considered a cytotoxic effect, or a failing score (Fail)); Results Pass/Fail (L-929 cells (ATCC CCL-1); dilution 1:4 of 25 μg/mL): Pass (receives a passing score (Pass) if the reactivity grade is not greater than grade 2 or a mild reactivity); Results Pass/Fail (L-929 cells (ATCC CCL-1); dilution 1:8 of 25 μg/mL): Pass (receives a passing score (Pass) if the reactivity grade is not greater than grade 2 or a mild reactivity); Results Pass/Fail (L-929 cells (ATCC CCL-1); dilution 1:16 of 25 μg/mL): Pass (receives a passing score (Pass) if the reactivity grade is not greater than grade 2 or a mild reactivity)
– | – | NCCCNCCCNCc1cc(CNCCCNCCCN)cc(-c2cc(C(F)(F)F)cc(C(F)(F)F)c2)c1 [CZ-70, N^1,N^1′-((3′,5′-bis(trifluoromethyl)-[1,1′-biphenyl]-3,5-diyl)bis(methylene))bis(N^3-(3-aminopropyl)propane-1,3-diamine), hydrochloride salt] | < 50 | < 50 | –
– | – | NCCCNCCCNCc1cc(CNCCCNCCCN)cc(Oc2ccccc2)c1 [CZ-74, N^1,N^1′-((5-phenoxy-1,3-phenylene)bis(methylene))bis(N^3-(3-aminopropyl)propane-1,3-diamine), hydrochloride salt] | < 50 | < 50 | –
– | – | NCCCNCCCNCc1cc(CNCCCNCCCN)cc(-c2ccc(F)cc2)c1 [CZ-75, N^1,N^1′-((4′-fluoro-[1,1′-biphenyl]-3,5-diyl)bis(methylene))bis(N3-(3-aminopropyl)propane-1,3-diamine), hydrochloride salt] | < 50 | < 50 | –
– | – | CCCCOc1cc(CNCCCNCCCN)cc(CNCCCNCCCN)c1 [CZ-76, N^1,N^1′-((5-butoxy-1,3-phenylene)bis(methylene))bis(N3-(3-aminopropyl)propane-1,3-diamine), hydrochloride salt] | 50 to 100 | < 50 | –
– | – | NCCCNCc1cc(CNCCCN)cc(-c2ccccc2)c1 [CZ-77, N^1,N^1′-([1,1′-biphenyl]-3,5-diylbis(methylene))bis(propane-1,3-diamine), hydrochloride salt] | < 50 | < 50 | –
< 50 | < 50 | NCCCNCCCNCc1cc(O)cc(CNCCCNCCCN)c1 [CZ-87, 3,5-bis(((3-((3-aminopropyl)amino)propyl)amino)methyl)phenol] | – | – | –
< 50 | < 50 | NCCCNCCCNCc1cc(CNCCCNCCCN)cc(-c2ccc(C(=O)N3CCCCC3)cc2)c1 [CZ-88, (3′,5′-Bis(((3-((3-aminopropyl)amino)propyl)amino)methyl)-[1,1′-biphenyl]-4-yl) (piperidin-1-yl)methanone] | – | – | –
< 50 | < 50 | O=C1NCCCN1CCCNCc1cc(CNCCCN2CCCNC2=O)cc(-c2ccccc2)c1 [CZ-89, 1,1′-((([1,1′-biphenyl]-3,5diylbis(methylene))bis(azanediyl))bis(propane-3,1-diyl))bis(tetrahydropyrimidin-2(1H)-one)] | – | – | –
– | – | CCC(CC)COc1cc(CNCCCNCCCNCC(C)C)cc(CNCCCNCCCNCC(C)C)c1 [CZ-91, N^1,N^1′-((5-(2-ethylbutoxy)-1,3-phenylene)bis(methylene))bis(N^3-(3-(isobutylammonio)propyl)propane-1,3-diaminium) chloride] | < 50 | < 50 | –
< 50 | < 50 | CC(C)Oc1cc(CNCCCNCCCN)cc(CNCCCNCCCN)c1 [CZ-93, N^1,N^1′-((5-isopropoxy-1,3-phenylene)bis(methylene))bis(N^3-(3-aminopropyl)propane-1,3-diamine)] | – | – | –
< 50 | < 50 | c1ccc(CNCCCNCCCNCc2cc(CNCCCNCCCNCc3ccccc3)cc(-c3ccccc3)c2)cc1 [CZ-94, N^1,N^1′-([1,1′-biphenyl]-3,5-diylbis(methylene))bis(N^3-(3-(benzylamino)propyl)propane-1,3-diamine)] | – | – | –
– | – | NCCCNCCCNCc1cc(CNCCCNCCCN)cc(OCc2ccccc2)c1 [CZ-95, N^1,N^1′-((5-(Benzyloxy)-1,3-phenylene)bis(methylene))bis(N^3-(3-aminopropyl)propane-1,3-diamine), hydrochloride salt] | < 50 | < 50 | –
< 50 | < 50 | c1cc(CNCCCNCCCNCC2CCCCC2)cc(CNCCCNCCCNCC2CCCCC2)c1 [CZ-97, N^1,N^1′-(1,3-phenylenebis(methylene))bis(N^3-(3-((cyclohexylmethyl)-amino)propyl)propane-1,3-diamine)] | – | – | –
– | – | NCCCNCCCNCc1cc(CNCCCNCCCN)cc(OCC2CCCCC2)c1 [CZ-101, N^1,N^1′-((5-(cyclohexylmethoxy)-1,3-phenylene)bis(methylene))bis(N^3-(3-aminopropyl)propane-1,3-diamine), hydrochloride salt] | < 50 | < 50 | –
< 50 | 50 to 100 (≈ 27.8 to 55.7 µg/mL) | CC(C)CNCCCNCCCNCc1cc(CNCCCNCCCNCC(C)C)cc(-c2cnn(C)c2)c1 [CZ-102, N^1,N^1′-((5-(1-methyl-1H-pyrazol-4-yl)-1,3-phenylene)bis(methylene))bis(N3-(3-(isobutylamino)propyl)propane-1,3-diamine)] | – | – | –
< 50 | – | CC(C)CNCCCNCCCNCc1cc(CNCCCNCCCNCC(C)C)cc(OC2CCCCC2)c1 [CZ-104, N^1,N^1′-((5-(cyclohexyloxy)-1,3-phenylene)bis(methylene))bis(N^3-(3-(isobutylamino)propyl)propane-1,3-diamine)] | – | – | MIC (P. aeruginosa) (P. aeruginosa; Table 5): ++ to +++

SMILES | MIC (MRSA; Table 5) [µM] | MIC (P. aeruginosa; [2]) [µM] | MIC (P. aeruginosa; [1]) [µM] | MIC (MRSA) [µM] | further results
NCCCNCCCNCc1cccc(CNCCCNCCCN)c1 [CZ-25 (Bz)] | < 50 | – | – | – | –
NCCCNC(=O)c1cccc(C(=O)NCCCN)c1 [CZ-41] | > 100 | – | – | – | –
NCCCNCCCNCc1cccc(CNCCCNCCCN)c1 [CZ-42] | – | 50 to 100 (≈ 18.2 to 36.5 µg/mL) | – | – | MIC (MRSA) (MRSA; Table 5): ++ (++ = 100 μM ≥ MIC ≥ 50 μM. MIC results of “>n μM” or “<n μM” will also be designated as ++ if 100 ≥ n ≥ 50.)
